# Paper PMC11555526, “Development of 2-Aminoadenine-Based Proteolysis-Targeting Chimeras (PROTACs) as Novel Potent Degraders of Monopolar Spindle 1 and Aurora Kinases” (ACS Pharmacology & Translational Science, 2024)
# Columns and labels:
# [1] = Stability in buffer solutions (LC-ESI-MS); assay type: physicochemical; settings: for residual concentration (% of initial concentration): after 24 h
# Procedure: Lastly, to gain a first insight into the stability of the synthesized compounds in a biological system, the stability of one of the degraders was examined at two different pH values and in human plasma (Figures S8 and S9). We chose one of the best degraders of the SF1 series, 20 as it also resembled the best degrader from azareversine series 19 in terms of the linker and E3-binding moiety. All experiments were carried out at 37 °C, and aliquots were analyzed using LC-ESI-MS at predetermined time points. […] We concluded from the stability profile of 20 that it is sufficient for further testing. […]
# Stability in Buffer Solutions
# The stability of the conjugate was examined by performing chemostability experiments at two different buffer solutions (pH = 5.2 and 7.4). Conjugate 20 was dissolved in 5 µL DMSO and transferred to 0.5 mL of the relevant buffer solution (acetate or phosphate aquatic buffer solutions). The mixture was then incubated at 37 °C, samples were collected at predetermined time points (0, 1, 2, 3, 4, 5, 24 and 48 h), and analyzed by LC-MS.
# Results are presented as the mean ± of SD after repeating the experiment three times.
# Figure S9: ESI-LCMS charts detected at 254 nm of conjugate 20 at pΗ5.2 and selected time intervals
# [2] = Plasma stability (LC-ESI-MS); assay type: in vitro ADME; settings: 37 °C
# Procedure: Lastly, to gain a first insight into the stability of the synthesized compounds in a biological system, the stability of one of the degraders was examined at two different pH values and in human plasma (Figures S8 and S9). We chose one of the best degraders of the SF1 series, 20 as it also resembled the best degrader from azareversine series 19 in terms of the linker and E3-binding moiety. All experiments were carried out at 37 °C, and aliquots were analyzed using LC-ESI-MS at predetermined time points. […] We concluded from the stability profile of 20 that it is sufficient for further testing.
# First, 250 µg of conjugate 20 were diluted in 5 µL DMSO and the mixture was added to 0.5 mL of human plasma. The mixture was incubated at 37 °C. 50 µL of aliquot was removed at predetermined time points and quenched with 150 µL ice-cold acetonitrile (+0.1% formic acid). Then, the mixture was centrifuged at 10,000 rpm for 10 min. Then, 50 µL of supernatant was added to 50 µL of ultrapure water (+0.1% formic acid) and analyzed by LC-MS. Results are presented as the mean ± SD of three independent experiments. […]
# [3] = biological target: T1, AURKA (Homo sapiens, UniProt O14965); test: Immunoblot of AURKA in HiBiT-TTK cells; assay type: cell-based; settings: 6 h
# T1 construct: endogenous in cells; host or cells: MV4-11 HiBiT-TTK cells (AURKA not transduced)
# T1 sequence (O14965 1-403): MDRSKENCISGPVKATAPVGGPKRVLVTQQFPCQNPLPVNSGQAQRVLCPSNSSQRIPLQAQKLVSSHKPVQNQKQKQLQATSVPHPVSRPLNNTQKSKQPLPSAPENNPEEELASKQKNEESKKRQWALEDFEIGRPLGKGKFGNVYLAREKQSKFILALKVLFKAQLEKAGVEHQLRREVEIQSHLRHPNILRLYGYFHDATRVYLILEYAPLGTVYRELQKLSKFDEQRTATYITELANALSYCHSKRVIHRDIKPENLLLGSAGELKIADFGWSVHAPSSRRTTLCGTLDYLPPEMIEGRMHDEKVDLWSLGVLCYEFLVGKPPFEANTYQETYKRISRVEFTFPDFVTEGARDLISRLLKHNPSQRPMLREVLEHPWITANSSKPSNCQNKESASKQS
# Procedure: The cells were treated with compounds or vehicle for indicated time points and lysed in RIPA lysis buffer (50 mM HEPES pH 7.9, 140 mM NaCl, 1 mM EDTA, 1% Triton X-100, 0.1% SDS, 0.1% sodium deoxycholate) containing protease and phosphatase inhibitors (Sigma) for 20 min at 4 °C. Cell lysates were cleared by centrifugation, and protein concentration was determined with bicinchoninic acid assay. Equal amounts of protein per sample were separated by Bis-Tris-PAGE and transferred to PVDF membranes (Millipore). The membranes were blocked with 5% (w/v) nonfat dry milk in TBS-T [20 mM Tris–HCl, pH 7.5, 150 mM NaCl, 0.1% (v/v) Tween-20] for 1 h at room temperature and incubated with primary antibody at 4 °C overnight. Visualization was carried out using horseradish peroxidase (HRP)-labeled secondary antibodies and detected using a chemiluminescent HRP substrate (Millipore) in LAS3000 or LAS4000 mini (Fujifilm). Vinculin, GAPDH, or B-actin were used as a loading control. […] The signal was quantified using ImageJ or Image Studio Lite against the corresponding loading controls. […]
# Figure S2: Cellular degradation studies of SF1-based compounds. […] Indicated MV4-11 HiBiT cells were treated with different concentrations of 15 (B), and 28 (C) for 6 h, lysed, complemented with the large luciferase fragment (largeBiT), and luciferase 27 (A), activity was measured. […]
"residual concentration (% of initial concentration) ([1]; pH 5.2, 37 °C)","stability at both pH values ([1]; pH 5.2 and 7.4, 37 °C, for 8 h)","residual concentration (% of initial concentration) ([1]; pH 7.4, 37 °C)",half-life (t1/2) in human plasma [2],"relative AURKA level (immunoblot quantification, vehicle = 1.00) ([3]; 0.16 µM)","relative AURKA level (immunoblot quantification, vehicle = 1.00) ([3]; 10 µM)",Compound
56%,stable,11.2%,4.4 h,,,CC(C)S(=O)(=O)c1ccccc1Nc1nc(Nc2ccc(N3CCN(C(=O)CNC(=O)CCCC(=O)Nc4cccc5c4C(=O)N(C4CCC(=O)NC4=O)C5=O)CC3)cc2)nc2[nH]cnc12 (stereo not drawn) [Compound 20]
,,,,1.00,0.87,Cc1ncsc1-c1ccc(CNC(=O)[C@@H]2C[C@@H](O)CN2C(=O)[C@@H](NC(=O)COCCOCC(=O)N2CCN(c3ccc(Nc4nc(Nc5ccccc5S(=O)(=O)C(C)C)c5nc[nH]c5n4)cc3)CC2)C(C)(C)C)cc1 [Compound 49]
